# Data: US20120184517A1, “TREATMENT OF DISEASES WITH ALTERED SMOOTH MUSCLE CONTRACTILITY” (priority 2009, published 2012)
# Entries after “also recorded” stand apart in the source; their conditions may differ.
# Legend:
# PKCδ = PKCδ (Homo sapiens, UniProt Q05655); settings: cited from earlier work
# [1] = tested on: Jurkat T cells and purified human CD4+ T cells; settings: cited from earlier work
# [2] = molecular target: c-Jun N-terminal kinase 1 α1 (JNK1 α1) (Homo sapiens, UniProt P45983); settings: 20 μM; cited from earlier work
# Sequence of c-Jun N-terminal kinase 1 α1 (JNK1 α1) (P45983 1-384 isoform P45983-2, species assumed): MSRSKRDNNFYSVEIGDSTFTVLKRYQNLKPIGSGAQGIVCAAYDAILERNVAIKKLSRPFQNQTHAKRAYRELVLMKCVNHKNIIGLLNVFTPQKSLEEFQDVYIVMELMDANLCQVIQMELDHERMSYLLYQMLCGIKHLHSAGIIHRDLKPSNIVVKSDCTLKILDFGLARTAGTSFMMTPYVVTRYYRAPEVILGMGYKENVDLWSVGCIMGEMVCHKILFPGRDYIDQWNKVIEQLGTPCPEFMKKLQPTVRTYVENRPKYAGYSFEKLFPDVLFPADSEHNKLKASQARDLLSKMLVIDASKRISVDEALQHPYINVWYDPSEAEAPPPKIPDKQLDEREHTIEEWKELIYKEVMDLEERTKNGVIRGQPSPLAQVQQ
# other PKC isozymes = settings: cited from earlier work
# [3] = molecular target: glycogen synthase kinase 3β (Homo sapiens, UniProt P49841); settings: 20 μM; cited from earlier work
# tracheal rings = test: Isoproterenol-induced relaxation of tracheal rings from PBS- and OVA-sensitized animals; format: cell-based, murine; parameters: isoproterenol-induced relaxation: dose or concentration left out as unconfirmed
# Protocol: The isoproterenol-induced relaxation of tracheal rings from OVA-sensitized asthmatic animals was also tested. After induction of asthma, tracheal rings were removed and mounted on the myograph. […] At the conclusion of the experiment, each tracheal ring was exposed to methacholine to ensure viability of the ring and equivalent constriction.
# After induction of asthma, tracheal rings were removed and mounted on the myograph. […] The ISO-relaxation curve was shifted downward and to the right, with the maximal relaxation response reduced to only ˜25% from more than 60%.
# [4] = molecular target: mitogen- and stress-activated protein kinase 1 (MSK-1) (Homo sapiens, UniProt O75582); settings: 20 μM; cited from earlier work
# PKA = PKA (Homo sapiens, UniProt P17612); settings: 20 μM; cited from earlier work
# [5] = tested on: canine subarachnoid hemorrhage model; settings: 5 μM injected into the cistera magna; cited from earlier work
# [6] = molecular target: 3-phosphoinositide-dependent protein kinase-1 (PDK-1) (Homo sapiens, UniProt O15530); settings: 20 μM; cited from earlier work
# Sequence of 3-phosphoinositide-dependent protein kinase-1 (PDK-1) (O15530 whole entry, species assumed): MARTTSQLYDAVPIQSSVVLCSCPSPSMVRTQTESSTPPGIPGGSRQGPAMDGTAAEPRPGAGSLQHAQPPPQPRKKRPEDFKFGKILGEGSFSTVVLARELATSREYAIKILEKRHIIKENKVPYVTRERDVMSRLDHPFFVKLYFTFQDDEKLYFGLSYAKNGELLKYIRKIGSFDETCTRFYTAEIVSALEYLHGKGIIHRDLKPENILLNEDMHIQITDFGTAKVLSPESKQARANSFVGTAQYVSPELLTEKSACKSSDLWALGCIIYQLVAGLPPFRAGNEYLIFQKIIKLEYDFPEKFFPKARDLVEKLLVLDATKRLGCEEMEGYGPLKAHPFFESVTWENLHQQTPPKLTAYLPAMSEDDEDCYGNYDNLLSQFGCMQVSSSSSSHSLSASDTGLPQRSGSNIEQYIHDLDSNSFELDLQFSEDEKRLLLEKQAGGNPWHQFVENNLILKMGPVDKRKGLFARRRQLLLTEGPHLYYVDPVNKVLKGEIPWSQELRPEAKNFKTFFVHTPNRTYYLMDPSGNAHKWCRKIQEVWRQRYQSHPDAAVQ
# rats = settings: 10-20 mg/kg/day×6 days; cited from earlier work
# BKCa channel = BKCa channel (Homo sapiens, UniProt Q12791); test: Outside-out single channel recordings of cultured human VSMC; format: cell-based; parameters: Human vascular smooth muscle cells (VSMC) grown in vitro express BKCa channels; endogenous in cells; host or cells: cultured human vascular smooth muscle cells (outside-out patches)
# Sequence of BKCa channel (Q12791 whole entry): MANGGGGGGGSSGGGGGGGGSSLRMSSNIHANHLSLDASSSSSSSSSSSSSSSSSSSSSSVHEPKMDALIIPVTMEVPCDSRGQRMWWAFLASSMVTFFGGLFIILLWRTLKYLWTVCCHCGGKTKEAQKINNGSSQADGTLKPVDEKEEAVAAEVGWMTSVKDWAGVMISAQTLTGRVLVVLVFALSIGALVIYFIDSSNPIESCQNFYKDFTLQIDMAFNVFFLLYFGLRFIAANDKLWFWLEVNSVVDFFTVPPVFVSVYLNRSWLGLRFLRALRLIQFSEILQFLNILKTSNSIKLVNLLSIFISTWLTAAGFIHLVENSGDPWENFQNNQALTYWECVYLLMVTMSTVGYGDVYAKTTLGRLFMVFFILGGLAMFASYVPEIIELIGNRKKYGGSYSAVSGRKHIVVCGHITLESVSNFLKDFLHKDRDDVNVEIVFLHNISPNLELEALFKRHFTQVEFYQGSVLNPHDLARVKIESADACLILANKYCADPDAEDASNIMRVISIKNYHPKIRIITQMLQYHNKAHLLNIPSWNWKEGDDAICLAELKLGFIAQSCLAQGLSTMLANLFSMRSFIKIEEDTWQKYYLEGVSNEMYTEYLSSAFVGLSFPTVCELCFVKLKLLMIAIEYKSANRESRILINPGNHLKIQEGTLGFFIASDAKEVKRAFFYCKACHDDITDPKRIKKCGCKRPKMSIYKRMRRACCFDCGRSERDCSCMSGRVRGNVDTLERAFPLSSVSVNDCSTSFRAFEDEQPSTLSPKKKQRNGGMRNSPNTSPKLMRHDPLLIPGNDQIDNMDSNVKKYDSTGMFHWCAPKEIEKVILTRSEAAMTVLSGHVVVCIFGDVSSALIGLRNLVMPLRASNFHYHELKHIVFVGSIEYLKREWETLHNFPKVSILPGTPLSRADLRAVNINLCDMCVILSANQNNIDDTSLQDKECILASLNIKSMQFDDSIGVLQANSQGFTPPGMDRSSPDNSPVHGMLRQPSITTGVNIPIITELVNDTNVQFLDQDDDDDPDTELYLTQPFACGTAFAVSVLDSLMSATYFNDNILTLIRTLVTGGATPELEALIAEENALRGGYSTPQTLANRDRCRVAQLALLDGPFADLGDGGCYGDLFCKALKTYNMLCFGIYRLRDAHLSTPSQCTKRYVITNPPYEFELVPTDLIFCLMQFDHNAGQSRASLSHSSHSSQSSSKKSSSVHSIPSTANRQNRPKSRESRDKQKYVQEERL
# HDM-exposed mice = test: House dust mite (HDM) sensitized asthma model
# Protocol: House dust mite (HDM) is one of the most common aeroallergens and is implicated in allergy and asthma symptoms in ˜10% of the population (Johnson et al., “Continuous exposure to house dust mite elicits chronic airway inflammation and structural remodeling.” Am J Respir Crit Care Med 169:378-385 (2004)). Exposure to HDM extract elicits a severe and persistent eosinophilic airway inflammation. Mice were exposed to purified HDM extract (Greer Laboratories, Lenoir, N.C.) intranasally (25 μg of protein in 10 μl saline) for 5 days/week for 3 weeks as previously described (Id.). […] Changes in pressure, flow, and volume were recorded, and airway resistance was calculated from peak values after each challenge using a Buxco forced maneuvers system and restrained whole body plethysmography (rWBP; PLY3011 chamber, Buxco (BUXCO Electronics Inc., Troy, N.Y.)).
# [7] = cited from earlier work
# guinea pigs = settings: 10-20 mg/kg/day×6 days; cited from earlier work
# [8] = tested on: murine femoral arterial rings; format: cell-based
# Protocol: Current was monitored with a ramp protocol; holding potential −60 mV, with ramp from −80 mV to +150 mV over 500 ms. […] Analysis was performed using tail analysis with normalization as previously described (Xia, et al., Multiple regulatory sites in large-conductance calcium-activated potassium channels. Nature, 2002. 418(6900):880-4). […] Identification of the BKCa channel was determined by conductance and inhibition by iberiotoxin and TEA. […] Murine femoral arterial rings were isolated and placed in a wire myograph. […] The figures shown are representative of 4 similar experiments. Error bars are standard error of the mean (SEM). Asterisk (*) indicates p<0.001.
# casein kinase II = casein kinase II (Homo sapiens, UniProt P68400); settings: cited from earlier work
# Sequence of casein kinase II (P68400 whole entry): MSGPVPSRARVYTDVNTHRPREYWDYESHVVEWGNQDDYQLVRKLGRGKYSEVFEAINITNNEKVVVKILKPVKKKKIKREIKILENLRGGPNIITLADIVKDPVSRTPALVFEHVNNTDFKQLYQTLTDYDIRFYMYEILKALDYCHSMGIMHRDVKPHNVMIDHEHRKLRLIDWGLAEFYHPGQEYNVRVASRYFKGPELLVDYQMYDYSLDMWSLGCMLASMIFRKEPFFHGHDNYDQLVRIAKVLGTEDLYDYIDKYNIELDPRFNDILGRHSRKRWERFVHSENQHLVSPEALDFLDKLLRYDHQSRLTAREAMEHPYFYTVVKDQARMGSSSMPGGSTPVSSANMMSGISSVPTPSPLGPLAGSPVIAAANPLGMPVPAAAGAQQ
# Akt = Akt (Homo sapiens, UniProt P31749); settings: 20 μM; cited from earlier work
# Sequence of Akt (P31749 whole entry): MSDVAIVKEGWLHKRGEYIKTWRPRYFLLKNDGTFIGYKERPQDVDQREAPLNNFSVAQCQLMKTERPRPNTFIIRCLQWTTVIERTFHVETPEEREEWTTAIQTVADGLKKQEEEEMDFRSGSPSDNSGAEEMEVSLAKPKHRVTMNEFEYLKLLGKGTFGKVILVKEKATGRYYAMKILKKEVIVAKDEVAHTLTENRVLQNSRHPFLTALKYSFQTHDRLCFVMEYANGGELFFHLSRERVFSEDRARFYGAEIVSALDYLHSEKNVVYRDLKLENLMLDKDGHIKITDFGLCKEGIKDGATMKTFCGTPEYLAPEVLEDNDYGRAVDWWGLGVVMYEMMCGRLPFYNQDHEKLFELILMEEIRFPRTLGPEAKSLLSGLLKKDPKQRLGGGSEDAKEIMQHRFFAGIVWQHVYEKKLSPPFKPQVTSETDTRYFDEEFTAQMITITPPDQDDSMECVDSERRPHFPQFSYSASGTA
# [9] = tested on: mitochondria in intact cells; settings: cited from earlier work
# [10] = tested on: membrane potential of tracheal smooth muscle cells; test: Membrane potential measurement in tracheal smooth muscle cells; format: cell-based, mice
# Protocol: In this experiment, murine tracheal smooth muscle cells were acutely isolated and whole cell patch clamped as previously described (Zakharov, S. et al., (2005) J Biol Chem 280, 30882-30887).
# The membrane potential was recorded using perforated patch clamp technique.
# recombinant BK (mSlo1) = molecular target: T1, recombinant BK (mSlo1) (Mus musculus, UniProt Q08460); test: Cell-free outside-out/inside-out patch single channel recordings from HEK cells; format: biochemical, murine
# T1 construct: expressed in transfected cells
# T1 sequence (Q08460 whole entry): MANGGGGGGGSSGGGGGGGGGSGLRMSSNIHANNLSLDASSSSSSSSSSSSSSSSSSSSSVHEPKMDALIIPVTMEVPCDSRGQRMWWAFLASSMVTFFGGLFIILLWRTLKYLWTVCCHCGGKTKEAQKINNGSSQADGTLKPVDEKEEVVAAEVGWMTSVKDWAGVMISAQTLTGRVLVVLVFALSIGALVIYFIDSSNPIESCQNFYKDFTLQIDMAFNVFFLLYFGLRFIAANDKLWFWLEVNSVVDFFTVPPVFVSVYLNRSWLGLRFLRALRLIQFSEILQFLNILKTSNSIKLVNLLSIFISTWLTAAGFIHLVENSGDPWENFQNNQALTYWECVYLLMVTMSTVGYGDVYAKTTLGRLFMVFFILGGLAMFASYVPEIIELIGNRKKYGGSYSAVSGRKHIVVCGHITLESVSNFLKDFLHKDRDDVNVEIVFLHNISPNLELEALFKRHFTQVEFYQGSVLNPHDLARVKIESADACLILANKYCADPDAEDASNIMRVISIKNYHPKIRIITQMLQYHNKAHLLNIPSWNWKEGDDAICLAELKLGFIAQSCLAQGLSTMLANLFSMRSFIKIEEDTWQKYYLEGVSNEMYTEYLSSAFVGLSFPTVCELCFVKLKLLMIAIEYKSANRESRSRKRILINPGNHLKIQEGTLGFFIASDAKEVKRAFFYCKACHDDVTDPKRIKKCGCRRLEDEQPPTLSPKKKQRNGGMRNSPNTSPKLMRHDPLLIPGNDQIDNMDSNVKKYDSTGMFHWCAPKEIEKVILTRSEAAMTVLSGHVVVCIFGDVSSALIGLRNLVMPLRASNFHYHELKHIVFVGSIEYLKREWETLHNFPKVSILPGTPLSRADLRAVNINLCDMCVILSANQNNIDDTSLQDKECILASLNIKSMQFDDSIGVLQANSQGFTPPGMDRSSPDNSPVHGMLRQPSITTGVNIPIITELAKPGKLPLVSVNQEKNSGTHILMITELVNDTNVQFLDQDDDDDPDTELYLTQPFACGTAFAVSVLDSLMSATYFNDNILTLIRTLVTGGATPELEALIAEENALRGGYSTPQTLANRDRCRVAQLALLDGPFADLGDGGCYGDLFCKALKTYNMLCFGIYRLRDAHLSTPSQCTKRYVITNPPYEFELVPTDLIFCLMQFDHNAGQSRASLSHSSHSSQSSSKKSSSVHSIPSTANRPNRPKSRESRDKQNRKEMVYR
# Protocol: Ca^2+ was maintained at 0 (virtual; actual <20 nM) through dialysis using a patch pipette.
# [11] = molecular target: glutamate-aspartate transporter (GLAST) (Homo sapiens, UniProt P43003); settings: cited from earlier work
# Sequence of PKCδ (Q05655 whole entry): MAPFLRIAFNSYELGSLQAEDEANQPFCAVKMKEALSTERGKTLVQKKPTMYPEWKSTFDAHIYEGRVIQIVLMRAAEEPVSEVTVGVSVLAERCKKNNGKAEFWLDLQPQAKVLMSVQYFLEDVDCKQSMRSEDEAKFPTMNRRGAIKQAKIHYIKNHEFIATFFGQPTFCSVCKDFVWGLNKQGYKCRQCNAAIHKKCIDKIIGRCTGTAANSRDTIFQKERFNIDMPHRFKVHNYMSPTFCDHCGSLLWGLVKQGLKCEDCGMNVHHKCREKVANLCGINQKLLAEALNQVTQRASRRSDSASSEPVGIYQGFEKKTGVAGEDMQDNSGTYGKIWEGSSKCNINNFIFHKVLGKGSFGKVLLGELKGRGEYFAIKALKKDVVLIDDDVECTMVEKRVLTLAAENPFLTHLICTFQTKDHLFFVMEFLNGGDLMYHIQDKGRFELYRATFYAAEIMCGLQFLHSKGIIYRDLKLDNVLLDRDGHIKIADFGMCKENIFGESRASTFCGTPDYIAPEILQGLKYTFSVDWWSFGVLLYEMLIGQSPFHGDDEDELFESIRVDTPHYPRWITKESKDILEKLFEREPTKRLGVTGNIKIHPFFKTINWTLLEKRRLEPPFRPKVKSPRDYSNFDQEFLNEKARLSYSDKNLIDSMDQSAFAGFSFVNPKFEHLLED
structure (smiles),measurement,setting,value
"CC(=O)c1c(O)c(C)c(O)c(Cc2c(O)c3c(c(C(=O)/C=C/c4ccccc4)c2O)OC(C)(C)C=C3)c1O [rottlerin, 5,7-dihydroxy-2,2-dimethyl-6-(2,4,6-trihydroxy-3-methyl-5-acetylbenzyl)-8-cinnamoyl-I,2-chromene]",IC50,PKCδ,3 to 6 µM
same,PMA-induced phosphorylation of Erk-1 and Erk-2,[1],blocked
same,inhibition,[2],51%
same,IC50,other PKC isozymes,30 to 100 µM
same,inhibition,[3],87%
same,maximal relaxation response to isoproterenol,"tracheal rings; OVA-sensitized rings, acute rottlerin in the bath 2 minutes prior to ISO",~45%
same,isoproterenol-induced relaxation,tracheal rings; PBS-treated (control) animals,enhanced the isoproterenol-induced relaxation
same,inhibition,[4],62%
same,inhibition,PKA,83%
same,cerebral vasospasm,[5],inhibited the initial phase of cerebral vasospasm
same,inhibition,[6],64%
same,fertility rate,rats,reduce the fertility rate
same,channel open probability,"BKCa channel; 0.5 μM rottlerin, outside-out patches, cultured human VSMC",significant increase
same,Po and open dwell time,"BKCa channel; rottlerin 0.5 μM local perfusion, +60 mV",increasing Po and open dwell time; also recorded: significantly increased
same,"adverse effect, mortality, morbidity",HDM-exposed mice; 5 μg/g intraperitoneal every other day,no significant adverse effect
same,cellular infiltrate in the peribronchial and perivascular regions,HDM-exposed mice; HDM-exposed animals,significant reduction
same,airway resistance,"HDM-exposed mice; HDM-sensitized mice, methacholine 25-50 mg/ml",marked decrease in their airway resistance
same,airway resistance,HDM-exposed mice; PBS-sensitized animals,no effect
same,solubility in DMSO,[7]; DMSO,100 mM
same,solubility in ethanol,[7]; ethanol,2 mM
same,fertility rate,guinea pigs,reduce the fertility rate
same,PE induced constriction of the vessel,[8]; rottlerin 0.5 μM (FIG. 7D legend),significantly inhibited
same,effect on phenylephrine mediated contraction,[8]; rottlerin 1 μM,no significant effect
same,reduction of phenylephrine mediated contraction,[8]; rottlerin 4 μM,more than 50%
same,IC50,casein kinase II,30 to 100 µM
same,inhibition,Akt,73%
same,mitochondrial uncoupling,[9]; 10 μM,uncouple mitochondria
same,ATP levels,[9]; PKC independent,reduce ATP levels
same,membrane potential,"[10]; after rottlerin application (1 μM), FIGS. 11B and 11D",significant hyperpolarization
same,membrane potential,"[10]; perforated patch clamp, rottlerin 2 μM, FIG. 15",significant hyperpolarization
same,channel open probability,"recombinant BK (mSlo1); 0.5 μM rottlerin, outside-out patches from HEK cells, absence of ATP",significant increase
same,experiments in which activation was found,"recombinant BK (mSlo1); rottlerin 0.5 μM bath application, outside-out patch, +30 mV, n=18",100%
same,channel conductance,"recombinant BK (mSlo1); rottlerin 0.5 μM, outside-out, 0 Ca2+",does not significantly change
same,capacity of GLAST,[11],decrease the capacity
